Measured values reported in patent US20220088225A1, “VIRAL TRANSDUCTION USING POLOXAMINES” (SIRION Biotech GmbH, priority 2018, published 2022).

Tested on: A2780 cells
Test: Lentiviral transduction of adherent A2780 cells, Luciferase-expressing lentivirus, luminescence (RLU)
Assay type: cell-based, human
Protocol: Human ovarian carcinoma cells A2780 (Sigma Aldrich) and human lung adenocarcinoma cells NCl H1838 (ATTC) were grown in RPMI 1640 medium supplemented with 10% (vol/vol) fetal calf serum (FCS; Biochrom) and 2 mM L-glutamine (PAN Biotech).
The lentiviral transduction vectors p-Ubic-Luc2-IRES-Puro and p-CMV-copGFP-IRES-Puro allow expression of Luciferase driven by Ubic promoter or copGFP by CMV promoter, respectively. Replication-defective lentiviral particles were produced by transient co-transduction of HEK293-TN cells in a T75 flask with 10 μg of packaging plasmids pMDL, pVSV-G, pRev (Roche) and 2 μg of transduction vector using Lipofectamine 2000 (Life Technologies) as transduction reagent according to the manufacturer's instructions. […]
To quantify total viral transgene expression by Luciferase, 100 μl Steady-Glo reagent (Promega) was added to the cells 3 days after viral transduction. The plate with the cells was put into a Tecan Infinite M200 plate reader and shaken for 30 seconds. After incubation for 10 minutes at room temperature, luminescence signal was measured by the plate reader. […]
As controls virus only (with H2O instead of adjuvant), or […] Polybrene was added to the wells before transduction. […] Three days post transduction the efficiency of transduction was assessed by measuring luciferase activity on a plate reader. Results are presented in relative luminescence units (RLU). […]

**Q.** Which results are given for Protamine sulfate?
**A.** increase of total transgene expression compared to virus only (5 μg/ml Protamine sulfate alone): 1.14 fold; increase of total transgene expression compared to virus only (40 μg/ml Protamine sulfate alone): 2.08 fold
